Assay results published in patent publication US4628095A, “Substituted N-benzyl-4-(benzhydryl) piperidines” (G. D. Searle & Co., priority 1985, dated 1986).

Experiments:
[1] = system: spontaneously hypertensive rat (SHR); experiment: Anti-hypertensive activity, unanesthetized spontaneously hypertensive rat (SHR) assay, mean arterial blood pressure; format: in vivo
Experimental: Male, unanesthetized spontaneously hypertensive rats, 11 to 16 weeks old were used in this test procedure. The compounds to be tested are administered intragastrically at a dose of 50 mg/kg or intraarterially/intraveneously at a dose of 10 mg/kg. or such other doses determined to be suitable for a specific test compound.
Initial mean arterial blood pressure was measured directly via a previously implanted arterial catheter immediately before administration of the test compound. Blood pressure readings were made at 1, 2, 3, and 4 hours following administration of the test compound. […] Statistical comparisons were made using the paired Student's T test with two sided probability calculations.

[2] = system: vascular smooth muscle (isolated thoracic aorta segments); experiment: Calcium antagonism in vascular smooth muscle, isolated thoracic aorta segments from male spontaneously hypertensive rat (pA2); format: cell-based; conditions: for active in the foregoing test (vascular calcium antagonism): reference drugs; for pA2 (Ca++ antagonism): test compound 1×10^-6 M, one hour incubation, K+ (100 mM) depolarized, considered active if pA2 is 6.0 or greater
Experimental: Isolated thoracic aorta segments from the male spontaneously hypertensive rat were utilized in this test procedure.
The excised aorta segment was mounted in a tissue bath containing modified Krebs solution. After depolarization of the tissue with potassium (100 mM), calcium, in cumulative concentrations of 1×10^-3 M, 3.2×10^-3 M, and 1×10^-2 M was injected into the bath to produce vascular smooth muscle contraction. The developed tension (in grams) is measured and control dose-response values obtained. After one hour of incubation with a test compound at 1×10^-6 M concentration, the same doses of calcium ions were repeated. The log dose-response curves of the control and after treatment were analyzed by linear regression. The pA2 value was calculated as a measure of calcium antagonism of the test compound. See Van Rossum, J. M., Arch. Int. Pharmacodyn, 143, 299-330, 1963.
Calcium ions play an essential role in induction and maintenance of vascular smooth muscle contractility. In potassium depolarized vascular smooth muscle, calcium antagonists may block the entry of calcium ions into the cell or act by other mechanisms to inhibit the contractions induced by calcium ions. The inhibition of calcium ion-induced contraction of vascular smooth muscle is used to test compounds for vascular calcium antagonism. Cardiovascular diseases such as arrythmias, angina-pectoris, hypertension, and peripheral vascular disease may be causally related to abnormalities in cellular handling of calcium ions.

[3] = reference drugs, dose not given

Clc1cccc(Cl)c1N=C1NCCN1 [Clonidine, reference compound]
active in the foregoing hypertensive rat assay ([1]; rat, in vivo): active

COc1ccc([C@@H]2Sc3ccccc3N(CCN(C)C)C(=O)[C@@H]2OC(C)=O)cc1 [diltiazem, reference compound]
active in the foregoing test (vascular calcium antagonism) [2]: active

CN(C)c1ccc(CN2CCC(C(c3ccccc3)c3ccccc3)CC2)c(C(=O)NC(C)(C)C)c1 [Example 6, 5-(dimethylamino)-N-(1,1-dimethylethyl)-2-[[4-(diphenylmethyl)-1-piperidinyl]methyl]benzamide]
SHR activity (in words) ([1]; dose not given, active if mean post treatment blood pressure differs from control, p <= 0.05): inactive
pA2 (Ca++ antagonism) ([2]; 60 min, 1 µM): 7.20

CN(C)c1ccc(C[N+]2([O-])CCC(C(c3ccccc3)c3ccccc3)CC2)cc1 (centres unmarked) [Example 9]
SHR -mm Hg (dose), blood pressure change ([1]; 50 mpk-oral): -48 mm Hg
pA2 (Ca++ antagonism) [2]: inactive

C[C@](N)(Cc1ccc(O)c(O)c1)C(=O)O [Aldomet, reference compound]
active in the foregoing hypertensive rat assay [1, 3]: active

CNC(=O)c1cc(N(C)C)ccc1CN1CCC(C(c2ccccc2)c2ccccc2)CC1 [Example 5, 5-(dimethylamino)-2-[[4-(diphenylmethyl)-1-piperidinyl]methyl]-N-methylbenzamide]
SHR -mm Hg (dose), blood pressure change ([1]; 10 mpk-i.v.): -56 mm Hg
pA2 (Ca++ antagonism) ([2]; 60 min, 1 µM): 7.25

CN(C)c1ccc(CN2CCC(C(c3ccc(F)cc3)c3ccc(F)cc3)CC2)c(C(=O)NC(C)(C)C)c1 [Example 3, 2-[[4-[bis(4-fluorophenyl)methyl]-1-piperidinyl]methyl]-5-(dimethylamino)-N-(1,1-dimethylethyl)benzamide]
SHR -mm Hg (dose), blood pressure change ([1]; 50 mpk-oral): -54 mm Hg
pA2 (Ca++ antagonism) [2]: inactive

COc1ccc(CCN(C)CCCC(C#N)(c2ccc(OC)c(OC)c2)C(C)C)cc1OC (centres unmarked) [Verapamil, reference compound]
active in the foregoing test (vascular calcium antagonism) [2]: active

C[C@H](CS)C(=O)N1CCC[C@H]1C(=O)O [Captopril, reference compound]
active in the foregoing hypertensive rat assay [1, 3]: active

COC(=O)c1cc(N(C)C)ccc1CN1CCC(C(c2ccccc2)c2ccccc2)CC1 [Example 11, methyl 5-(dimethylamino)-2-[[4-(diphenylmethyl)-1-piperidinyl]methyl]benzoate]
SHR -mm Hg (dose), blood pressure change ([1]; 50 mpk-oral): -34 mm Hg
pA2 (Ca++ antagonism) ([2]; 60 min, 1 µM): 7.65

COC(=O)c1cc(N(C)C)ccc1CN1CCC(C(c2ccc(F)cc2)c2ccc(F)cc2)CC1 [Example 4, methyl 2-[[4-[bis(4-fluorophenyl)methyl]-1-piperidinyl]methyl]-5-(dimethylamino)benzoate]
SHR -mm Hg (dose), blood pressure change ([1]; 50 mpk-oral): -67 mm Hg
pA2 (Ca++ antagonism) ([2]; 60 min, 1 µM): 7.78

COC(=O)c1cc(OC)ccc1CN1CCC(C(c2ccccc2)c2ccccc2)CC1 [Example 8, methyl 2-[[4-(diphenylmethyl)-1-piperidinyl]methyl]-5-methoxybenzoate]
SHR -mm Hg (dose), blood pressure change ([1]; 3-10 mpk-i.v.): -40 mm Hg

COC(=O)C1=C(C)NC(C)=C(C(=O)OC)C1c1ccccc1[N+](=O)[O-] [nifedipine, reference compound]
active in the foregoing test (vascular calcium antagonism) [2]: active

NNc1nncc2ccccc12 [Apresoline, reference compound]
active in the foregoing hypertensive rat assay ([1]; rat, in vivo): active
